Columns and labels:
Mouse M4 = molecular target: T1, Mouse M4 (Mus musculus, UniProt P32211); assay: mAChR M4 cell-based functional calcium flux assay (mouse M4/Gqi5/CHO cells); conditions: for Emin (mouse M4): % ACh maximum at 30 μM
T1 construct: expressed in transfected cells; host or cells: CHO-K1 (ATCC), stably expressing M4 and Gqi5
T1 sequence (P32211 1-479): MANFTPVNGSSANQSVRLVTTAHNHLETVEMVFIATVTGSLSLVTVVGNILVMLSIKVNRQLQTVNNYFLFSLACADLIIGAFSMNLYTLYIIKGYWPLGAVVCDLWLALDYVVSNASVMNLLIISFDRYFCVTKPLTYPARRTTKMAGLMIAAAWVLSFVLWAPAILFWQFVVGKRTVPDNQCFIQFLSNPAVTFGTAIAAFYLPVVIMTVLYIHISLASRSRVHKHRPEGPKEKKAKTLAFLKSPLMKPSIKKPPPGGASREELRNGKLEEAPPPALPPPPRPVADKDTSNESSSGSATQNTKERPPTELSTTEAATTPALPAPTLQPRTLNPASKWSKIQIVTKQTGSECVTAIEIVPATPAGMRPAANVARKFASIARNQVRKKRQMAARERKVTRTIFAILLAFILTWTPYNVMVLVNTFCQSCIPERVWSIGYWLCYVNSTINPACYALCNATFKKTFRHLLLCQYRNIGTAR
Method: Human, rat, or mouse M4. cDNA, along with the chimeric G protein Gqi5, were transfected into Chinese hamster ovary (CHO-K1) cells purchased from the American Type Culture Collection using Lipofectamine2000. M4/Gqi5/CHO cells were grown in Ham's F-12 medium containing 10% heat-inactivated fetal bovine serum (FBS), 20 mM HEPES, 500 μg/mL G418 sulfate, and 200 μg/mL Hygromycin B.
For high throughput measurement of agonist-evoked increases in intracellular calcium, CHO-K1 cells stably expressing muscarinic receptors were plated in growth medium lacking G418 and hygromycin at 15,000 cells/20 μL/well in Greiner 384-well black-walled, tissue culture (TC)-treated, clear-bottom plates (VWR). Cells were incubated overnight at 37° C. and 5% CO2. The next day, cells were washed using an ELX 405 (BioTek) with assay buffer; the final volume was then aspirated to 20 μL. Next, 20 μL of a 2.3 μM stock of Fluo-4/acetoxymethyl ester (Invitrogen, Carlsbad, CA), prepared as a 2.3 mM stock in DMSO and mixed in a 1:1 ratio with 10% (w/v) Pluronic F-127 and diluted in assay buffer, was added to the wells and the cell plates were incubated for 50 min at 37° C. and 5% CO2. Dye was removed by washing with the ELX 405 and the final volume was aspirated to 20 μL. Compound master plates were formatted in a 10 point concentration-response curve (CRC) format (1:3 dilutions) in 100% DMSO with a starting concentration of 10 or 1 mM using a BRAVO liquid handler (Agilent). Test compound CRCs were then transferred to daughter plates (240 nL) using the Echo acoustic plate reformatter (Labcyte, Sunnyvale, CA) and then diluted into assay buffer (40 μL) to a 2× stock using a Thermo Fisher Combi (Thermo Fisher Scientific, Waltham, MA).
Calcium flux was measured using the Functional Drug Screening System (FDSS) 6000 or 7000 (Hamamatsu Corporation, Tokyo, Japan) as an increase in the fluorescent static ratio. Compounds were applied to cells (20 μL, 2×) using the automated system of the FDSS at 2 seconds into the protocol and the data were collected at 1 Hz. At 143 s, 10 μL of an EC20 concentration of the muscarinic receptor agonist acetylcholine was added (5×), followed by the addition of 12 μL of an EC80 concentration of acetylcholine at the 268 s time point (5×). Agonist activity was analyzed as a concentration-dependent increase in calcium mobilization upon compound addition. Positive allosteric modulator activity was analyzed as a concentration-dependent increase in the EC20 acetylcholine response. Antagonist activity was analyzed as a concentration-dependent decrease in the EC80 acetylcholine response; for the purposes of the tables herein, an IC50 (inhibitory concentration 50) was calculated as a concentration-dependent decrease of the response elicited by an EC80 concentration of acetylcholine. Concentration-response curves were generated using a four-parameter logistical equation in XLFit curve fitting software (IDBS, Bridgewater, NJ) for Excel (Microsoft, Redmond, WA) or Prism (GraphPad Software, Inc., San Diego, CA) or the Dotmatics software platform (Dotmatics, Bishop's Stortford, UK).
Compounds were synthesized as described above. Activity (IC50 and Emin) was determined in the mAChR M4 cell-based functional assay as described above and the data are shown in Table 2 and Table 3. The compound number corresponds to the compound numbers used in the examples and Tables 1 and 1.1.

Rat M4 = molecular target: T2, Rat M4 (Rattus norvegicus, UniProt P08485); assay: mAChR M4 cell-based functional calcium flux assay (rat M4/Gqi5/CHO cells)
T2 construct: expressed in transfected cells; host or cells: CHO-K1 (ATCC), stably expressing M4 and Gqi5
T2 sequence (P08485 1-478): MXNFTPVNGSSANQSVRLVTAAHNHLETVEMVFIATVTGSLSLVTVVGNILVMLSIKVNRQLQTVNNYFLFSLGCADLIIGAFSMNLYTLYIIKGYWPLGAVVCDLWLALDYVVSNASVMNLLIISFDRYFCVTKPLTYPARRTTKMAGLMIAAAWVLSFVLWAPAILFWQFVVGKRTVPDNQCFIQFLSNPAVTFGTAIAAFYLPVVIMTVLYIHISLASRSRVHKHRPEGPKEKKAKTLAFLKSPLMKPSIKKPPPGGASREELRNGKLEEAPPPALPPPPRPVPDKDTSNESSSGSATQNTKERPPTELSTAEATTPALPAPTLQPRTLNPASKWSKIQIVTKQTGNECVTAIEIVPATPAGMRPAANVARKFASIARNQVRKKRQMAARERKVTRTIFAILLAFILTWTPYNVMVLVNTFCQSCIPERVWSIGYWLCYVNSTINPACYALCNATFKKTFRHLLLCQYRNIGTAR
Procedure, shortened: (§1)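 CHO-K1 cells stably co-expressing M4 of the given species with chimeric Gqi5 were loaded with Fluo-4 AM and read for calcium flux. Compounds (10-point, 1:3 dilutions) were added first, followed by an acetylcholine EC20 at 143 s and an EC80 at 268 s. IC50 reflects the concentration-dependent fall in the EC80 response, fitted with a four-parameter logistic.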

Human M4 = molecular target: T3, Human M4 (Homo sapiens, UniProt P08173); assay: mAChR M4 cell-based functional calcium flux assay (human M4/Gqi5/CHO cells)
T3 construct: expressed in transfected cells; host or cells: CHO-K1 (ATCC), stably expressing M4 and Gqi5
T3 sequence (P08173 1-479): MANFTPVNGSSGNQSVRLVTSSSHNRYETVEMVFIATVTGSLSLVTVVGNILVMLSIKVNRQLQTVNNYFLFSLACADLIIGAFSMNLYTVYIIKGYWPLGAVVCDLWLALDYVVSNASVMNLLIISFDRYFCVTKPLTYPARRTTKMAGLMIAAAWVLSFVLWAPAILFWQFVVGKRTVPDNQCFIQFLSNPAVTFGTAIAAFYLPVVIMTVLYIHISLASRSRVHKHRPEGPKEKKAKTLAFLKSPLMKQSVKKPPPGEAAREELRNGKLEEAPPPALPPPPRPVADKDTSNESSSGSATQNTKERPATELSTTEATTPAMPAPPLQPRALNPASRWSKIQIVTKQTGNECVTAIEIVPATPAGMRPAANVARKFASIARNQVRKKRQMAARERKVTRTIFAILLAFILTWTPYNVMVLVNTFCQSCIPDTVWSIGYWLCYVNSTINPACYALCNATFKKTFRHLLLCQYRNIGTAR
Procedure, shortened: as §1

[1] = test system: haloperidol-induced catalepsy; assay: haloperidol-induced catalepsy, a model of parkinsonian motor disability; type: in vivo, mice
Source text: Furthermore, haloperidol-induced catalepsy, a model of parkinsonian motor disability, is reduced in M4 knockout mice as compared to wild-type controls. […] The reversal by scopolamine was uncommonly robust and more pronounced than we observe with agents targeting a number of other targets being evaluated for potential antiparkinsonian effects, including metabotropic glutamate (mGlu) receptors mGlu4 or mGlu5, A2A adenosine receptors, and NMDA receptors. […] Taken together with the extensive studies of M4 modulation of basal ganglia and motor function, these studies provide compelling evidence that M4 is the dominant mAChR subtype involved in the antiparkinsonian effects of non-selective mAChR antagonists and provide support for discovery and development of selective M4 antagonists for treatment of neurodegenerative disease such as PD, dystonia, tardive dyskinesia and other movement disorders.

[2] = decrease of the response to an EC80 concentration of acetylcholine

| SMILES | Emin (mouse M4) (Mouse M4) [%] | IC50 (Mouse M4; [2]) [µM] | further results |
| --- | --- | --- | --- |
| CC(C)(C)CCN1CCC2(CC1)CC2CNc1ccc(N2CCCCC2)nn1 (centres unmarked) [Compound 78, N-[[6-(3,3-dimethylbutyl)-6-azaspiro[2.5]octan-2-yl]methyl]-6-(1-piperidyl)pyridazin-3-amine] | 8 | 1.24 |  |
| CC(C)(C)CCN1CCC2(CC1)CC2CNc1ccc2nccn2n1 (centres unmarked) [Compound 102, N-[[6-(3,3-dimethylbutyl)-6-azaspiro[2.5]octan-2-yl]methyl]imidazo[1,2-b]pyridazin-6-amine] | 8 | 1.29 |  |
| C1=CC2CC1CC2CN1CCC2(CC1)CC2CNc1ccc2nncn2n1 (centres unmarked) [Compound 103, N-[[6-(5-bicyclo[2.2.1]hept-2-enylmethyl)-6-azaspiro[2.5]octan-2-yl]methyl]-[1,2,4]triazolo[4,3-b]pyridazin-6-amine] | 13 | 1.5 |  |
| CC(C)(C)CCN1CCC2(CC1)CC2CNc1ccc2nncn2n1 (centres unmarked) [Compound 104, N-[[6-(3,3-dimethylbutyl)-6-azaspiro[2.5]octan-2-yl]methyl]-[1,2,4]triazolo[4,3-b]pyridazin-6-amine] | 17 | 2.82 |  |
| CC(=O)Nc1ccc(-c2ccc(NC[C@H]3CC34CCN(CC3CCOCC3)CC4)nn2)cc1 [Compound 126, N-[4-[6-[[(2S)-6-(tetrahydropyran-4-ylmethyl)-6-azaspiro[2.5]octan-2-yl]methylamino]pyridazin-3-yl]phenyl]acetamide] |  |  | Emin (rat M4) (Rat M4; % ACh maximum at 30 μM): 28%; IC50 (Rat M4; cells printed in μM, decrease of the EC80 acetylcholine response): ≥ 10 µM; Emin (human M4) (Human M4; % ACh maximum at 30 μM): 14%; IC50 (Human M4; [2]): 1810 nM |
| CN1[C@@H]2C[C@@H](OC(=O)[C@H](CO)c3ccccc3)C[C@H]1[C@@H]1O[C@@H]12 [scopolamine] |  |  | reduction of haloperidol-induced catalepsy ([1]; M4 KO mice): ineffective; reversal of haloperidol-induced catalepsy ([1]; WT mice): completely reversed |

Now from value to molecule, other results behind:

| Emin (mouse M4) (Mouse M4) [%] | IC50 (Mouse M4; [2]) [µM] | SMILES | further results |
| --- | --- | --- | --- |
| 3 | 2.81 | Fc1ccc(Cl)c(-c2ccc(OCC3CC34CCN(CC3CC5C=CC3C5)CC4)nn2)c1 (centres unmarked) [Compound 86, 6-(5-bicyclo[2.2.1]hept-2-enylmethyl)-2-[[6-(2-chloro-5-fluoro-phenyl)pyridazin-3-yl]oxymethyl]-6-azaspiro[2.5]octane] |  |
| 37 |  | c1cc2nncn2nc1NCC1CC12CCN(CC1CCCCC1)CC2 (centres unmarked) [Compound 105, N-[[6-(cyclohexylmethyl)-6-azaspiro[2.5]octan-2-yl]methyl]-[1,2,4]triazolo[4,3-b]pyridazin-6-amine] | IC50 (Mouse M4; in μM, decrease of the EC80 acetylcholine response): > 10 µM |
| 9 | 0.68 | Fc1ccc(Cl)c(-c2ccc(NC[C@@H]3CC34CCN(CC3CCCOC3)CC4)nn2)c1 (stereo partly drawn) [Compound 106, (R)-6-(2-chloro-5-fluoro-phenyl)-N-[[6-(tetrahydropyran-3-ylmethyl)-6-azaspiro[2.5]octan-2-yl]methyl]pyridazin-3-amine] |  |
